Results taken from BindingDB's records for PubMed 35239336 (Pharmaron Beijing Co., Ltd., 2022).

Experiment: Inhibition of MK-499 binding to hERG

Compound | IC50
O=C(Nc1ccc(F)cc1)C1(c2ccc(-c3cnc(C(F)(F)F)cc3CO)cc2)CC(F)(F)C1 | 6.1 µM
CC(C)(O)c1cc(C(F)(F)F)ncc1-c1ccc(C2(C(=O)Nc3ccc(F)cc3)COC2)cc1 | 21.3 µM
Cc1cc(C(F)(F)F)ncc1-c1ccc(C2(C(=O)Nc3ccc(F)cc3)COC2)cc1 | 2.23 µM
O=C(Nc1ccc(F)cc1)C1(c2ccc(-c3ccc(C4CC4)nc3)cc2)COC1 | 13.5 µM
Cc1cc(C2CC2)ncc1-c1ccc(C2(C(=O)Nc3ccc(F)cc3)COC2)cc1 | 15.9 µM
